These results are taken from patent US20230339977A1, “SUBSTITUTED HETEROARYL COMPOUND, AND COMPOSITION AND APPLICATION THEREOF” (SUNSHINE LAKE PHARMA CO., LTD., priority 2020, published 2023).

The IC50 is the point on the concentration scale where inhibition reaches its midpoint. Usually Cmax stands for the maximum level reached in the sampled fluid or tissue.

The structures appear in SMILES notation. Like-named read-outs stand apart in the source and are kept apart here.

One series deals with TF-1 cells. Briefly: Inhibitory effect on TF-1 cell proliferation. In kind it is cell-based. To be noted: Homo sapiens, alamar blue, read-out: IC50 (nM) TF-1 (h). The procedure: TF-1 cells were seeded in a 96-well culture plate at a density of 20,000/well with 80 µL per well, the blank well was an equal amount of complete medium, and 10 µL of the compound dilution solution was added to the 96-well plate B1-11, C1-11, E1-11, F1-11, positive and negative wells were added with 5% DMSO medium equal to the volume of the compound, and the final concentration of DMSO was 0.5%. After 30 min, GM-CSF with a final concentration of 2 ng/mL was added to rows B, C, and D (positive wells), and the remaining wells (rows E, F, and G) were added with the same volume of medium as cytokines (negative wells). After incubation for 44 h at 37° C. in 5% CO2, alamar blue was added, the plate was incubated for 4 h, the fluorescence intensity of each well under the conditions of […], 580 nm wavelength was measured, and the IC50 value was calculated.
CTLL-2, P-STAT3 and TF-1 cells were seeded in a 96-well culture plate at a density of 20,000/well with 90 µL per well, and the blank well was an equal amount of complete medium. 10 ul of different compound dilutions were added to each plate row BC, DE, and FG, and 5% DMSO medium with equal volume of the compound was added to positive wells and negative wells, and the final concentration of DMSO was 0.5%. […]
(The colour change of resazurin is a common sign of viable cells or microbes.)

Series [1] can be described thus: Pharmacokinetic evaluation in rats after intravenous injection and oral administration. Type of series: in vivo. Particulars: rat, plasma; for AUC(0-t): read-out: PK AUClast; for Cmax: read-out: PK Cmax; for half-life: read-out: PK T½ (converted). The procedure:
The analytical LC/MS/MS system includes an Agilent 1200 series vacuum degasser, a binary syringe pump, an orifice plate autosampler, a column oven, and an Agilent G6430 triple quadrupole mass spectrometer with an electrospray ionization (ESI) source.
Agilent XDB-C18, 2.1 × 30 mm, 3.5 µM column was used to analysis, 5 µL sample was injected. Analytical conditions: Mobile phases were 0.1% formic acid in water (A) and 0.1% formic acid in methanol (B). The flow rate was 0.4 mL/min.
In addition, Agilent 6330 series LC/MS/MS spectrometer was used for analysis, equipped with G1312A binary syringe pump, G1367A automatic sampler and G1314C UV detector; LC/MS/MS spectrometer used ESI radiation source. Optimum analysis was achieved using standards with appropriate cation model processing and MRM conversion for each analyte. A Capcell MP-C18 column, 100 × 4.6 mm I.D., 5 µM (Phenomenex, Torrance, California, USA) was used during the analysis. Mobile phase was 5 mM ammonium acetate, 0.1% methanol in water (A): 5 mM ammonium acetate, 0.1% methanol in acetonitrile (B) (70/30, v/v); flow rate was 0.6 mL/min; column temperature was maintained at room temperature; 20 µL of sample was injected.
The present invention evaluates the pharmacokinetic studies of the compounds of the present invention in mice, rats, dogs or monkeys. The compounds of the present invention were administered in the form of aqueous solution or 2% HPMC + 1% Tween-80 aqueous solution, 5% DMSO + 5% saline solution, 4% MC or capsule. For intravenous administration, animals were dosed at about 0.5, 0.6, 1 or 2 mg/kg. The oral doses (p.o.) were 5 or 10 mg/kg for rats and mice, and 10 mg/kg for dogs and monkeys. Bloods (0.3 mL) were taken at time points 0.25, 0.5, 1.0, 2.0, 3.0, 4.0, 6.0, 8.0, 12 and 24 h and centrifuged at 3,000 or 4,000 rpm for 10 min. Plasma solutions were collected and stored at -20° C. or -70° C. until LC/MS/MS analysis as described above. […] Table 2 is the experimental results of the pharmacokinetic characteristics of the compounds provided in the examples of the present invention in rats.

Take `CC(=O)Nc1cc2c(-c3ccc4c(n3)C3(CCOC3)OC4)cn(C)c2cn1` (centres unmarked) [Example 2, N-(3-(4,5-Dihydro-2H,5′H-Spiro[Furan-3,7′-Furo[3,4-b]Pyridin]-2′-yl)-1-Methyl-1H-Pyrrolo[2,3-c]Pyridin-5-yl)Acetamide]: the IC50 in the series with TF-1 cells was found to be 7560 nM. Further, in series [1] (IV 1 mg/kg), the AUC(0-t) amounted to 1140 ng·h/mL, the Cmax worked out at 1010 ng/mL and the half-life is 0.971 h. For the same molecule, in series [1] (PO 5 mg/kg), the AUC(0-t) came out at 9430 ng·h/mL, the Cmax is 1990 ng/mL and the half-life is 2.71 h. The bioavailability in series [1] (oral bioavailability, PO 5 mg/kg) worked out at 165%.
